Data reported in patent US11046709B2, “Fused 1,4-diazepines as BET bromodomain inhibitors” (THE REGENTS OF THE UNIVERSITY OF MICHIGAN, priority 2017, dated 2021).
Where two headings read alike, the source gives them in different places.

Experiments:
MDA-MB-231 = assay: Cell growth inhibition, 4-day proliferation assay, MDA-MB-231; type: cell-based; details: Homo sapiens
Experimental: (§1) The effect of representative Compounds of the Disclosure on cell viability was determined in a 4-day proliferation assay. Cells were maintained in the appropriate culture medium with 100/0 FBS at 37° C. and an atmosphere of 5% CO2. All the cell lines were used within three months of thawing fresh vials.
(§2) In general, cells were seeded in 96-well flat bottom (Corning COSTAR, Corning, N.Y., cat #3595) or white opaque cell culture plates (BD Falcon, cat #353296) at a density of 3,000-10,000 cells/well in 75 μl of culture medium. Compounds were serially diluted in the appropriate medium, and 75 μl of the diluted compounds were added to the appropriate wells of the cell plate. After the addition of compounds, the cells were incubated at 37° C. in an atmosphere of 5% CO2 for 4 days. Cell viability was determined using the CellTiter-Glo® Luminescent Cell Viability Assay Kit (Promega, Madison, Wis.) for leukemia cells and WST (2-(2-methoxy-4-nitrophenyl)-3-(4-nitrophenyl)-5-(2,4-disulfophenyl)-2H-tetrazolium, monosodium salt) Cell Counting-8 Kit (Dojindo Molecular Technologies, Inc., Rockville, Md.) for adherent cells according to the manufacturers' instructions.
(§3) For WST assay (adherent cells), WST-8 reagent was added to each well at a final concentration of 10% (v/v), and then the plates were incubated at 37° C. for 1-2 hours for color development. The absorbance was measured at 450 nm using a SPECTRAmax PLUS plate reader (Molecular Devices, Sunnyvale, Calif.). The readings were normalized to the DMSO-treated cells and the half maximal inhibitory concentration (IC50) was calculated by nonlinear regression (four parameters sigmoid fitted with variable slope, least squares fit, and no constraint) analysis using the GraphPad Prism 5 software (GraphPad Software, La Jolla, Calif.).
(§4) For CellTiter-Glo assay (suspension cells), 100 μl of CellTiter-Glo® Reagent was added to each well, and then the plates were incubated at room temperature for 10-20 minutes. The luminescent signal was measured using a Tecan Infinite M1000 multimode microplate reader (Tecan, Morrisville, N.C.). The readings were normalized to the DMSO-treated cells and the IC50 was calculated by nonlinear regression (four parameters sigmoid fitted with variable slope, least squares fit, and no constraint) analysis using the GraphPad Prism 5 software. See US 2014/0256706.
(§5) For a number of representative compounds in Table 5, their IC50 values in cell growth inhibition activity in the RS4;11 and MOLM-13 human leukemia cell lines and the MDA-MB-231 breast cancer cell line were evaluated using the WST-8 assay described in EXAMPLE 7, with the data shown in Table 7.

MOLM-13 = assay: Cell growth inhibition, 4-day proliferation assay, MOLM-13; type: cell-based; details: Homo sapiens
Experimental: as §1, §2, §3, §4, §5

recombinant BRD4 BD2 = target: T1, recombinant BRD4 BD2 (Homo sapiens, UniProt O60885); assay: Competitive fluorescence-polarization (FP) binding assay, BRD4 BD2
T1 construct: for recombinant BRD4 BD1 and BRD4 BD2 proteins
Experimental: Fluorescence Polarization (FP) competitive binding studies were carried out using a FAM labeled fluorescent probe, see, e.g., Cpd. No. 350 of US 2014/0256706, to determine binding affinities of representative Compounds of the Disclosure for recombinant BRD4 BD1 and BRD4 BD2 proteins. Equilibrium dissociation constants (Kd) values of the fluorescent probe to BRD4 BD1 and BD2 proteins were determined from protein saturation experiments by monitoring the total fluorescence polarization of mixtures composed with the fluorescent probe at a fixed concentration and proteins with increasing concentrations up to full saturation. Serial dilutions of testing proteins were mixed with the fluorescent probe to a final volume of 200 μl in the assay buffer (100 mM phosphate buffer, pH=6.5, 0.01% Triton X-100 (Sigma, 282103) being added right before assays). Final fluorescent probe concentration was 1.5 nM for both proteins. Plates were incubated at room temperature for 30 minutes with gentle shaking to assure equilibrium. FP values in millipolarization units (mP) were measured using the Infinite M-1000 plate reader (Tecan U.S., Research Triangle Park, N.C.) in Microfluor 1 96-well, black, round-bottom plates (Thermo Scientific, Waltham, Mass.) at an excitation wavelength of 485 nm and an emission wavelength of 530 nm. Kd values of the fluorescent probe, which were calculated by fitting the sigmoidal dose-dependent FP increases as a function of protein concentrations using Graphpad Prism 6.0 software (Graphpad Software, San Diego, Calif.), are 5.5 and 3.0 nM to BDR4 BD1 and 2, respectively.
The IC50 and Ki values of compounds were determined in a competitive binding experiment. See US 2014/0256706. Mixtures of 10 μl of the tested compounds in assay buffer with 40% Ethylene Glycol and 190 μl of preincubated protein/probe complex solution in the assay buffer (100 mM potassium phosphate, pH 6.5, 0.01% Triton X-100) were added into assay plates which were incubated at room temperature for 30 minutes with gentle shaking. Final concentrations of proteins were 10 and 6 nM in assays for BRD4 BD1 and BD2, respectively. Final probe concentration is 1.5 nM in both assays. Negative controls containing protein/probe complex only (equivalent to 0% inhibition), and positive controls containing only free probes (equivalent to 100% inhibition), were included in each assay plate. FP values were measured as described above. IC50 values were determined by nonlinear regression fitting of the competition curves. Instead of being calculated from IC50 values as described before. Ki values of competitive inhibitors were obtained directly by nonlinear regression fitting as well, based upon the Kd values of the probe to different proteins, and concentrations of the proteins and probes in the competitive assays (US 2014/0256706; Wang, FEBS Lett. 360:111 (1995); Zhang et al., Analytical Biochemistry, 331:138 (2004)).
Representative compounds in Table 5 were evaluated for their binding affinities to BRD4 BD1 and BD2 proteins using the Competitive Fluorescence-Polarization (FP) Assays described in Example 6, with the data included in Table 6.

[1] = MDA-MB-231, WST-8 assay, Table 7, read-out: Cell growth inhibition (IC50 (nM)) MDA-MB-231
[2] = MOLM-13, WST-8 assay, Table 7, read-out: Cell growth inhibition (IC50 (nM)) MOLM-13
[3] = MDA-MB-231, 96 h, read-out: Cell IC50 (nM) MDA-MB-231
[4] = MOLM-13, 96 h, read-out: Cell IC50 (nM) MOLM13

**Q.** Which IC50 (MDA-MB-231; [1]) does the source give for `Cc1c(C#Cc2cnn(C)c2)sc2c1C(c1ccc(Cl)cc1)=N[C@@H](CC(=O)N1CCN(C(=O)OC(C)(C)C)CC1)c1nnc(C)n1-2` [Compound 160, tert-butyl (S)-4-(2-(4-(4-chlorophenyl)-3,9-dimethyl-2-((1-methyl-1H-pyrazol-4-yl)ethynyl)-6H-thieno[3,2-f][1,2,4]triazolo[4,3-a][1,4]diazepin-6-yl)acetyl)piperazine-1-carboxylate] here?
**A.** The IC50 was 108 nM.

**Q.** And the IC50 (MOLM-13; [2])?
**A.** Its IC50 is 8.5 nM.

**Q.** With `Cc1c(C#Cc2cnn(C)c2)sc2c1C(c1ccc(Cl)cc1)=N[C@@H](CC(=O)N1CCNCC1)c1nnc(C)n1-2` [Compound 161, (S)-2-(4-(4-chlorophenyl)-3,9-dimethyl-2-((1-methyl-1H-pyrazol-4-yl)ethynyl)-6H-thieno[3,2-f][1,2,4]triazolo[4,3-a][1,4]diazepin-6-yl)-1-(piperazin-1-yl)ethan-1-one] as the compound, how does the IC50 (MDA-MB-231; [1]) read?
**A.** Its IC50 is 76.2 nM.

**Q.** And the IC50 (MOLM-13; [2])?
**A.** The IC50 was 10.9 nM.

**Q.** Which IC50 (MDA-MB-231; [1]) does the source give for `Cc1c(C#Cc2cnn(C)c2)sc2c1C(c1ccc(Cl)cc1)=N[C@@H](CC(=O)N1CCN(C)CC1)c1nnc(C)n1-2` [Compound 162, (S)-2-(4-(4-chlorophenyl)-3,9-dimethyl-2-((1-methyl-1H-pyrazol-4-yl)ethynyl)-6H-thieno[3,2-f][1,2,4]triazolo[4,3-a][1,4]diazepin-6-yl)-1-(4-methylpiperazin-1-yl)ethan-1-one] here?
**A.** Its IC50 is 109 ± 38 nM.

**Q.** And the IC50 (MOLM-13; [2])?
**A.** Its IC50 is 19.2 nM.

**Q.** Which results are given for `Cc1c(C#Cc2cncn2C)sc2c1C(c1ccc(Cl)cc1)=N[C@@H](CC(=O)N1CCN(C(=O)OC(C)(C)C)CC1)c1nnc(C)n1-2` [Compound 163, tert-butyl (S)-4-(2-(4-(4-chlorophenyl)-3,9-dimethyl-2-((1-methyl-1H-imidazol-5-yl)ethynyl)-6H-thieno[3,2-f][1,2,4]triazolo[4,3-a][1,4]diazepin-6-yl)acetyl)piperazine-1-carboxylate]?
**A.** IC50 (MDA-MB-231; [1]): 362 nM; IC50 (MOLM-13; [2]): 33.1 nM

**Q.** How did the IC50 (MDA-MB-231; [1]) turn out when `Cc1c(C#Cc2cncn2C)sc2c1C(c1ccc(Cl)cc1)=N[C@@H](CC(=O)N1CCNCC1)c1nnc(C)n1-2` [Compound 164] was run?
**A.** Its IC50 is 304 nM.

**Q.** And the IC50 (MOLM-13; [2])?
**A.** The IC50 was 85.4 nM.

**Q.** What does the source list for `Cc1c(C#Cc2ccccn2)sc2c1C(c1ccc(Cl)cc1)=NCc1nnc(C)n1-2` [Cpd. No. 1, 4-(4-chlorophenyl)-3,9-dimethyl-2-(pyridin-2-ylethynyl)-6H-thieno[3,2-f][1,2,4]triazolo[4,3-a][1,4]diazepine]?
**A.** IC50 (MDA-MB-231; [3]): 272 nM; IC50 (recombinant BRD4 BD2): 0.178 µM; IC50 (MOLM-13; [4]): 206 ± 21.9 nM

**Q.** For `Cc1c(C#Cc2cn[nH]c2)sc2c1C(c1ccc(Cl)cc1)=NCc1nnc(C)n1-2` [Cpd. No. 21, 2-((1H-pyrazol-4-yl)ethynyl)-4-(4-chlorophenyl)-3,9-dimethyl-6H-thieno[3,2-f][1,2,4]triazolo[4,3-a][1,4]diazepine], which IC50 (recombinant BRD4 BD2) is on record?
**A.** The IC50 was 0.0374 µM.

**Q.** With `Cc1c(C#Cc2cn[nH]c2)sc2c1C(c1ccc(Cl)cc1)=N[C@@H](C)c1nnc(C)n1-2` [Cpd. No. 22, (S)-2-((1H-pyrazol-4-yl)ethynyl)-4-(4-chlorophenyl)-3,6,9-trimethyl-6H-thieno[3,2-f][1,2,4]triazolo[4,3-a][1,4]diazepine] as the compound, how does the IC50 (recombinant BRD4 BD2) read?
**A.** Its IC50 is 0.00768 µM.

**Q.** For `Cc1c(C#CC2CCCC2)sc2c1C(c1ccc(Cl)cc1)=N[C@@H](C)c1nnc(C)n1-2` [Cpd. No. 29, (S)-4-(4-chlorophenyl)-2-(cyclopentylethynyl)-3,6,9-trimethyl-6H-thieno[3,2-f][1,2,4]triazolo[4,3-a][1,4]diazepine], which IC50 (recombinant BRD4 BD2) is on record?
**A.** The IC50 was 0.0103 µM.

**Q.** With `Cc1c(C#Cc2cncn2C)sc2c1C(c1ccc(Cl)cc1)=N[C@@H](C)c1nnc(C)n1-2` [Cpd. No. 30, (S)-4-(4-chlorophenyl)-3,6,9-trimethyl-2-((1-methyl-1H-imidazol-5-yl)ethynyl)-6H-thieno[3,2-f][1,2,4]triazolo[4,3-a][1,4]diazepine] as the compound, how does the IC50 (recombinant BRD4 BD2) read?
**A.** The IC50 was 0.0135 µM.

**Q.** Which IC50 (recombinant BRD4 BD2) does the source give for `Cc1c(C#Cc2ccc(F)cn2)sc2c1C(c1ccc(Cl)cc1)=N[C@@H](C)c1nnc(C)n1-2` [Cpd. No. 31, (S)-4-(4-chlorophenyl)-2-((5-fluoropyridin-2-yl)ethynyl)-3,6,9-trimethyl-6H-thieno[3,2-f][1,2,4]triazolo[4,3-a][1,4]diazepine] here?
**A.** Its IC50 is 0.0195 µM.

**Q.** Which IC50 (recombinant BRD4 BD2) does the source give for `Cc1c(C#Cc2ccc(N)cn2)sc2c1C(c1ccc(Cl)cc1)=N[C@@H](C)c1nnc(C)n1-2` [Cpd. No. 32, (S)-6-((4-(4-chlorophenyl)-3,6,9-trimethyl-6H-thieno[3,2-f][1,2,4]triazolo[4,3-a][1,4]diazepin-2-yl)ethynyl)pyridin-3-amine] here?
**A.** The IC50 was 0.00987 µM.

**Q.** How did the IC50 (recombinant BRD4 BD2) turn out when `Cc1c(C#CCN2CCN(C)CC2)sc2c1C(c1ccc(Cl)cc1)=N[C@@H](C)c1nnc(C)n1-2` [Cpd. No. 33, (S)-4-(4-chlorophenyl)-3,6,9-trimethyl-2-(3-(4-methylpiperazin-1-yl)prop-1-yn-1-yl)-6H-thieno[3,2-f][1,2,4]triazolo[4,3-a][1,4]diazepine] was run?
**A.** The IC50 was 0.0422 µM.

**Q.** Which IC50 (recombinant BRD4 BD2) does the source give for `Cc1c(C#Cc2cncs2)sc2c1C(c1ccc(Cl)cc1)=N[C@@H](C)c1nnc(C)n1-2` [Cpd. No. 34, (S)-4-(4-chlorophenyl)-3,6,9-trimethyl-2-(thiazol-5-ylethynyl)-6H-thieno[3,2-f][1,2,4]triazolo[4,3-a][1,4]diazepine] here?
**A.** Its IC50 is 0.0218 µM.

**Q.** How did the IC50 (recombinant BRD4 BD2) turn out when `Cc1c(C#Cc2nccs2)sc2c1C(c1ccc(Cl)cc1)=N[C@@H](C)c1nnc(C)n1-2` [Cpd. No. 35, (S)-4-(4-chlorophenyl)-3,6,9-trimethyl-2-(thiazol-2-ylethynyl)-6H-thieno[3,2-f][1,2,4]triazolo[4,3-a][1,4]diazepine] was run?
**A.** The IC50 was 0.022 µM.

**Q.** For `COc1ccc(C#Cc2sc3c(c2C)C(c2ccc(Cl)cc2)=N[C@@H](C)c2nnc(C)n2-3)nc1` [Cpd. No. 36, (S)-4-(4-chlorophenyl)-2-((5-methoxypyridin-2-yl)ethynyl)-3,6,9-trimethyl-6H-thieno[3,2-f][1,2,4]triazolo[4,3-a][1,4]diazepine], which IC50 (recombinant BRD4 BD2) is on record?
**A.** Its IC50 is 0.0117 µM.

**Q.** Which IC50 (MDA-MB-231; [3]) does the source give for `Cc1c(C#Cc2ccc(O)cn2)sc2c1C(c1ccc(Cl)cc1)=N[C@@H](C)c1nnc(C)n1-2` [Cpd. No. 42] here?
**A.** The IC50 was 7.9 nM.

**Q.** And the IC50 (MOLM-13; [4])?
**A.** Its IC50 is 10.6 nM.
